# In US12195467B2, “Compound having TrkA inhibitory activity and pharmaceutical composition, for preventing or alleviating pain, containing same as active ingredient” (JBKLAB CO., LTD., priority 2018, dated 2025):
# What was measured:
# TrkA = target: T1, TrkA (Homo sapiens, UniProt P04629); assay: TrkA inhibitory activity, CycLex TrkA kinase assay/inhibitor screening kit; format: biochemical; details: for inhibition at 1 µM: compound 1 μM, read-out: % inhibition rate (based on 1 μM)
# T1 construct: purchased MBL International (CycLex) CY-1091
# Experimental: The TrkA inhibitory activity of the compounds was evaluated using CycLex® TrkA kinase assay/inhibitor screening kit of MBL International (Cat No. CY-1091). The test was carried out according to the analysis method provided by the manufacturer. The test method is as follows.
# 1. 1× wash buffer was prepared by diluting 10× wash buffer in ddH2O.
# 2. 20×ATP solution (1.25 mM) was prepared by adding 1.6 mL of distilled water to the tube containing ATP dissolved in NA2 salt and freeze-dried.
# 4. A working solution mixture and a solution of the appropriate concentration of the example compound to evaluate the activity of the example compound were prepared and dispensed into a 96-well plate as shown in table below.
# 5. After dispensing the solutions into a 96-well plate, the plate was incubated at 30° C. for 30 minutes.
# 6. After incubation of the plate at 30° C. for 30 minutes, 200 μL of 1× wash buffer was added into each well of the plate, followed by washing. This process was repeated 5 times.
# 7. After washing the plate, 100 μL of HRP conjugated detection antibody (PX-39) was added into each well of the plate, followed by reaction at room temperature for 60 minutes.
# 8. Upon completion of the reaction, 200 μL of 1× wash buffer was added into each well of the plate, followed by washing. This process was repeated 5 times.
# 9. After washing the plate, 100 μL of substrate reagent containing chromogenic substrate and tetra-methylbenzidine (TMB) was added into each well of the plate, followed by incubation at room temperature for 5-15 minutes.
# 10. Upon completion of the reaction, 100 μL of stop solution (1 N H2SO4) was added into each well of the plate, followed by measuring OD450 within 30 minutes.
# TrkB = target: T2, TrkB (Homo sapiens, UniProt Q16620); assay: PathHunter eXpress TrkB functional assay kit (U2OS cells, agonist BDNF); format: cell-based; details: for inhibition at 1 µM: compound 1 μM, read-out: TrkB % inhibition rate (based on 1 μM)
# T2 construct: host or cells: U2OS
# Experimental: (§1) The inhibitory activity of the example compounds against TrkB and TrkC was evaluated using PathHunter® eXpress TrkB or TrkC functional assay kit (Product Code: 93-0463E3 and 93-0464E3) of DiscoverX. The test was carried out according to the analysis method provided by the manufacturer. The test was carried out as follows over 2 or 3 days depending on the conditions of cells.
# (§2) 1. Before starting the experiment, the cell plating (CP) reagent stored at −80° C. was dissolved in a 37° C. water bath.
# (§3) 2. When the CP reagent was dissolved, cell vials for TrkB or TrkC were prepared to be dissolved.
# (§4) 3. Two U2OS cell vials (TrkB kit & TrkC kit) stored in liquid nitrogen were thawed.
# (§5) 4. 500 μL of CP reagent was added to the thawed cell vial, and the cells were sufficiently mixed by pipetting and transferred to a Conical tube in which 11.5 mL of CP reagent was dispensed.
# (§6) 5. 12 mL cells (1×10^6 cells in CP reagent) were seeded on a 96-well tissue culture treated plate (100 μL/well), followed by culture in a 37° C., 5% CO2 humidified incubator for 24 hours or 48 hours.
# (§7) Day 2 or Day 3: Treatment of Test Material
# (§8) 1. Test material, agonist and antagonist were prepared as stock solutions according to the experiment design. • Test material: 10 mM Stock solution in DMSO • Antagonist (GNF-5837): 10 mM Stock solution in 1.8674 mL DMSO • Agonist: TrkB agonist→BDNF, TrkC agonist→NT-3
# (§9) 2. 10 mM stock solutions of teat material and antagonist having the concentration of 22 times more concentrated than the final screening concentration were prepared according to the experiment design.
# (§10) 3. Each well of the 96-well culture plate containing cells was treated with 5 μL of the solutions of teat material and antagonist having the concentration of 22 times more concentrated than the final screening concentration (#2), followed by incubation at 37° C. for 60 minutes.
# (§11) 4. During the incubation, 10 μg/mL stock solution of each agonist for TrkB and TrkC was prepared using a reconstitution buffer for the purpose of the experiment, and each well of the plate was treated with 5 μL of the prepared solution, followed by incubation at 19-25° C. for 3 hours.
# (§12) 5. During the incubation, a detection reagent working solution (4.75 ml Cell assay buffer, 1.25 ml Substrate Reagent 1, 0.25 ml Substrate Reagent 2) was prepared. Upon completion of the incubation, 55 μL of the working solution was added into each well of the plate.
# (§13) 7. The plate was incubated at room temperature for 60 minutes in a dark place, and the […] was measured with a luminescence plate reader.
# TrkC = target: T3, TrkC (Homo sapiens, UniProt Q16288); assay: PathHunter eXpress TrkC functional assay kit (U2OS cells, agonist NT-3); format: cell-based; details: compound 1 μM, read-out: TrkC % inhibition rate (based on 1 μM)
# T3 construct: host or cells: U2OS
# Experimental: as §1, §2, §3, §4, §5, §6, §7, §8, §9, §10, §11, §12, §13
# [1] = test system: postoperative pain animal model; assay: Pharmacological activity in postoperative pain model (von-Frey mechanical allodynia, 50% withdrawal threshold); format: in vivo, Sprague-Dawley male rats
# Experimental: Sprague-Dawley male rats weighing around 150 g (Orient bio., Korea) were used. Rats were raised in an environment where a 12-hour light-dark cycle was maintained, 4 per transparent plastic cage covered with scob as bedding. Food and water were provided freely. To verify the analgesic effect of the example compounds, all rats were anesthetized with O2 delivered from the induction chamber at a ratio of 3:3 of isoflurane and operated. Anesthetized rats were placed on a 37° C. warm plate to prevent hypothermia during the operation. The ipsilateral sole (left) of the hind paw of the experimental animal was disinfected with 10% povidone-iodine solution, and incised to a length of 1 cm with a #11 surgical knife. The incision was made starting from 0.5 cm of the proximal edge of the heel through the skin and fascia on the side of the ipsilateral sole toward the toe. After the incision, a gentle pressure was applied to the incision site to stop the bleeding and the skin was sutured. The surgical site was sterilized with 10% povidone-iodine solution, and gentamicin (8 mg/kg) was administered intraperitoneally to prevent infection. The analgesic effect of the compound on postoperative pain was evaluated in the experimental animals 2 days after the surgery. […] The formula for calculating the 50% withdrawal threshold (g) is as follows. 50% Withdrawal threshold (g)=(10^(x+kd))/10^4 [Mathematical Formula 1] • x=the value of the last tested filament (log unit value). • k=the value indicating positive/negative reaction by up-down method. • d=the value fixed at 0.224 as the average difference between stimuli.
# T1 sequence (P04629 33-796): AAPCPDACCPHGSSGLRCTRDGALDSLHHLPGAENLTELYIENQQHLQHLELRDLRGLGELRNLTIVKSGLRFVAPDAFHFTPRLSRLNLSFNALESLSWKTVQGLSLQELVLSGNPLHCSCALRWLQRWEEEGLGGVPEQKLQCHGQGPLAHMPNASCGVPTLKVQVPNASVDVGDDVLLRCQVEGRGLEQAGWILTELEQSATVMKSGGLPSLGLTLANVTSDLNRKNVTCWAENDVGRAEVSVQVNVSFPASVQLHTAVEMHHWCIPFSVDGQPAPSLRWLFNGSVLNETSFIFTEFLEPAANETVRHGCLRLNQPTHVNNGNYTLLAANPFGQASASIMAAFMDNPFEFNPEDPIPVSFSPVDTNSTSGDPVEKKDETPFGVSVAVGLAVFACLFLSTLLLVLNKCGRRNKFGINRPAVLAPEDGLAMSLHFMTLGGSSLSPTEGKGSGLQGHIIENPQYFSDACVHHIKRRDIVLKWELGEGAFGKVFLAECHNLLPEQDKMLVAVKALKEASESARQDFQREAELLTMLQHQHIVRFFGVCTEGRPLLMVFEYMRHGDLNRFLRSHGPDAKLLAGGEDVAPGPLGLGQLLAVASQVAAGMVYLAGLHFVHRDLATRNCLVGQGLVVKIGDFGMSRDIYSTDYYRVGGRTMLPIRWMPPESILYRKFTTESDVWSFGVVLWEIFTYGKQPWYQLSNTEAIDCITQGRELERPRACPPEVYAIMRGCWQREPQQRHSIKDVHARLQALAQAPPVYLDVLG
# T2 sequence (Q16620 32-822): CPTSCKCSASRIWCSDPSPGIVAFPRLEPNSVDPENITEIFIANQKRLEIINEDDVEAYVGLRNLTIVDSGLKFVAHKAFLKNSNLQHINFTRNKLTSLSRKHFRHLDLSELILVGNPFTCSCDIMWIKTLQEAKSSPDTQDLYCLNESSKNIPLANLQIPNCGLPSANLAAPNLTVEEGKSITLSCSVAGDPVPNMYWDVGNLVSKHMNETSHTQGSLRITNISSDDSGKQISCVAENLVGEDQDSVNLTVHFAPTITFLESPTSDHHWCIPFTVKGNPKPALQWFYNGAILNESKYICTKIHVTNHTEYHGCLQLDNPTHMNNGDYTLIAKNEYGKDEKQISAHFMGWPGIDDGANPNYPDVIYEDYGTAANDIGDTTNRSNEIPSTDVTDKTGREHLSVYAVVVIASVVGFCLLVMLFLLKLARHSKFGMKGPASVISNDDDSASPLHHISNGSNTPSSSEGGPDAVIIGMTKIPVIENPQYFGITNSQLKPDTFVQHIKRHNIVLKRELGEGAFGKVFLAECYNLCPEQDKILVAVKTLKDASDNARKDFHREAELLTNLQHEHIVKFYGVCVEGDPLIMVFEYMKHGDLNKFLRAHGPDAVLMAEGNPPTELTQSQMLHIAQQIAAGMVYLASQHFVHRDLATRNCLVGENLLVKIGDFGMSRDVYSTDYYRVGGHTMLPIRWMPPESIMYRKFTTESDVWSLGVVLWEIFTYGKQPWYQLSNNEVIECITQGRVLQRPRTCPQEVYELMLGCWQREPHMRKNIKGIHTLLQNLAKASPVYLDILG
# T3 sequence (Q16288 32-839): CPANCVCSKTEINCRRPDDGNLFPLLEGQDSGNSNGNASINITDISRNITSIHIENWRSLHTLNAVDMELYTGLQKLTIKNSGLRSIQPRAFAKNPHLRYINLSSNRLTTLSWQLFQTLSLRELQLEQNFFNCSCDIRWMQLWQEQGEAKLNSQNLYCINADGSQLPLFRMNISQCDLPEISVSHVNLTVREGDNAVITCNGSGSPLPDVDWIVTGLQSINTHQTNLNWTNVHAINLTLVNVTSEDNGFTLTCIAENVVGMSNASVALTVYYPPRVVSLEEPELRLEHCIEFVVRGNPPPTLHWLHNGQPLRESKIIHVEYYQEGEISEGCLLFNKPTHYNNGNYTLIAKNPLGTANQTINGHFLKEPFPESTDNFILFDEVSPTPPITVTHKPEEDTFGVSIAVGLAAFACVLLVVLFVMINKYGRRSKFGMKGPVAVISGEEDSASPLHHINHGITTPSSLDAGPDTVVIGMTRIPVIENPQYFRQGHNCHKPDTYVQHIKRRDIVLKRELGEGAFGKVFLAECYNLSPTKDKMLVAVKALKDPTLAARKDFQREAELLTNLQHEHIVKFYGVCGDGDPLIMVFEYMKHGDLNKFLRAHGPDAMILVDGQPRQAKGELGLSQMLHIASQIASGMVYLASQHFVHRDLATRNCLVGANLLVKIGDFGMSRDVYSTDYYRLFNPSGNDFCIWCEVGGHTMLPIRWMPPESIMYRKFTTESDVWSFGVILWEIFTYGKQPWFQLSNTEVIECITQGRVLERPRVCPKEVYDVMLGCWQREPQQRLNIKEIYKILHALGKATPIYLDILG
SMILES,inhibition at 1 µM (TrkA),further results
"CN1CCN(c2ccc(C(=O)Nc3c[nH]c4ncnc(N5CCC(C(N)=O)CC5)c34)cc2)CC1 [Example 20, 1-(5-(4-(4-methylpiperazine-1-yl)benzamido)-7H-pyrrolo[2,3-d]pyrimidine-4-yl)piperidine-4-carboxamide]",4%,
"Cn1cc(-c2cnc3[nH]nc(Nc4cc(Cl)cc(Cl)c4)c3c2)cn1 [Example 6, N-(3,5-dichlorophenyl)-5-(1-methyl-1H-pyrazole-4-yl)-1H-pyrazolo[3,4-b]pyridine-3-amine]",32%,
"CN1CCN(c2ccc(C(=O)Nc3c[nH]c4ncnc(-c5cnn(C6CCNCC6)c5)c34)cc2)CC1 [Example 17, 4-(4-methylpiperazine-1-yl)-N-(4-(1-(piperidine-4-yl)-1H-pyrazole-4-yl)-7H-pyrrolo[2,3-d]pyrimidine-5-yl)benzamide]",-11%,
"Clc1cc(Cl)cc(Nc2n[nH]c3ncc(-c4cnn(C5CCNCC5)c4)cc23)c1 [Example 7, N-(3,5-dichlorophenyl)-5-(1-(piperidine-4-yl)-1H-pyrazole-4-yl)-1H-pyrazolo[3,4-b]pyridine-3-amine]",37%,
"CN1CCN(c2ccc(C(=O)Nc3n[nH]c4ncc(-c5cnn(C6CCNCC6)c5)cc34)cc2)CC1 [Example 8, 4-(4-methylpiperazine-1-yl)-N-(5-(1-(piperidine-4-yl)-1H-pyrazole-4-yl)-1H-pyrazolo[3,4-b]pyridine-3-yl)benzamide]",99%,
"Oc1c(Cl)cc(-c2c[nH]c3ncnc(NC4CCC(O)CC4)c23)cc1Cl (stereo not drawn) [Example 23, 2,6-dichloro-4-(4-((1s,4s)-4-hydroxycyclohexylamino)-7H-pyrrolo[2,3-d]pyrimidine-5-yl)phenol]",100%,IC50 (TrkA): 57.9 nM; IC50 (TrkB): 894 nM; inhibition at 1 µM (TrkB): 56%; inhibition at 1 µM (TrkC): 15%
"Cn1cc(-c2cnc3[nH]nc(Nc4ccc(Cl)c(Cl)c4)c3c2)cn1 [Example 5, N-(3,4-dichlorophenyl)-5-(1-methyl-1H-pyrazole-4-yl)-1H-pyrazolo[3,4-b]pyridine-3-amine]",32%,
"CC(C)C[C@H](CN)CC(=O)O [Lyrica, Pregabalin, reference compound]",,"ED50 ([1]; Rattus norvegicus, po, 48 h): 17.5 mg/kg; Maximum duration of drug efficacy ([1]; oral, rat postoperative pain model, 2 days after surgery): 1.0 h"
"Clc1cc(Cl)cc(Nc2n[nH]c3cnc(-c4cnn(C5CCNCC5)c4)cc23)c1 [Example 3, N-(3,5-dichlorophenyl)-5-(1-(piperidine-4-yl)-1H-pyrazole-4-yl)-1H-pyrazolo[3,4-c]pyridine-3-amine]",6%,
"Clc1cccc(Nc2n[nH]c3cnc(-c4cccnc4)cc23)c1 [Example 1, N-(3-chlorophenyl)-5-(pyridine-3-yl)-1H-pyrazolo[3,4-c]pyridine-3-amine]",12%,
"CN1CCN(c2ccc(C(=O)Nc3n[nH]c4ncc(-c5ccc(F)cc5)cc34)cc2)CC1 [Example 11, N-(5-(4-fluorophenyl)-1H-pyrazolo[3,4-b]pyridine-3-yl)-4-(4-methylpiperazine-1-yl)benzamide]",99%,IC50 (TrkA): 218 nM; inhibition at 1 µM (TrkB): 17%; inhibition at 1 µM (TrkC): 9%
"CN1CCN(c2ccc(C(=O)Nc3c[nH]c4ncnc(-c5cc(Cl)c(O)c(Cl)c5)c34)cc2)CC1 [Example 24, N-(4-(3,5-dichloro-4-hydroxyphenyl)-7H-pyrrolo[2,3-d]pyrimidine-5-yl)-4-(4-methylpiperazine-1-yl)benzamide]",49%,
"COc1ccc(Cn2cc(NC(=O)c3ccc(N4CCN(C)CC4)cc3)c3c(-c4cnn(C5CCNCC5)c4)ncnc32)cc1 [Example 16, N-(7-(4-methoxybenzyl)-4-(1-(piperidine-4-yl)-1H-pyrazole-4-yl)-7H-pyrrolo[2,3-d]pyrimidine-5-yl)-4-(4-methylpiperazine-1-yl)benzamide]",8%,
"Cn1cc(-c2cnc3[nH]nc(Nc4cccc(Cl)c4)c3c2)cn1 [Example 4, N-(3-chlorophenyl)-5-(1-methyl-1H-pyrazole-4-yl)-1H-pyrazolo[3,4-b]pyridine-3-amine]",59%,
"Clc1ccc(Nc2n[nH]c3cnc(-c4cnn(C5CCNCC5)c4)cc23)cc1Cl [Example 2, N-(3,4-dichlorophenyl)-5-(1-(piperidine-4-yl)-1H-pyrazole-4-yl)-1H-pyrazolo[3,4-c]pyridine-3-amine]",6%,
"O=C(Nc1n[nH]c2ncc(-c3cnn(C4CCNCC4)c3)cc12)c1ccc(F)cc1 [Example 22, 4-fluoro-N-(5-(1-(piperidine-4-yl)-1H-pyrazole-4-yl)-1H-pyrazolo[3,4-b]pyridine-3-yl)benzamide]",99%,IC50 (TrkA): 436 nM; inhibition at 1 µM (TrkB): -2%; inhibition at 1 µM (TrkC): 20%
"CN1CCN(c2ccc(C(=O)Nc3c[nH]c4ncnc(-c5cnn(C6CCN(C(=O)OC(C)(C)C)CC6)c5)c34)cc2)CC1 [Example 18, tert-butyl 4-(4-(5-(4-(4-methylpiperazine-1-yl)benzamido)-7H-pyrrolo[2,3-d]pyrimidine-4-yl)-1H-pyrazole-1-yl)piperidine-1-carboxylate]",24%,
"CC(C)NC(=O)Nc1cccc(-c2cnc3[nH]nc(NC(=O)c4ccc(N5CCN(C)CC5)cc4)c3c2)c1 [Example 9, N-(5-(3-(3-isopropylureido)phenyl)-1H-pyrazolo[3,4-b]pyridine-3-yl)-4-(4-methylpiperazine-1-yl)benzamide]",81%,inhibition at 1 µM (TrkB): 1%; inhibition at 1 µM (TrkC): -20%
"CN1CCN(c2ccc(C(=O)Nc3c[nH]c4ncnc(N5CCCC(NC(N)=O)C5)c34)cc2)CC1 (stereo not drawn) [Example 21, 4-(4-methylpiperazine-1-yl)-N-(4-(3-ureidopiperidine-1-yl)-7H-pyrrolo[2,3-d]pyrimidine-5-yl)benzamide]",0%,
"CN1CCN(c2ccc(C(=O)Nc3c[nH]c4ncnc(N5CCC(N6CCCC6)CC5)c34)cc2)CC1 [Example 19, 4-(4-methylpiperazine-1-yl)-N-(4-(4-(pyrrolidine-1-yl)piperidine-1-yl)-7H-pyrrolo[2,3-d]pyrimidine-5-yl)benzamide]",-1%,
